How the values were obtained:
[1] = molecular target: T1, serotonin (5-HT) reuptake (Rattus norvegicus, UniProt P31652); test: Inhibition of serotonin (5HT) reuptake in synaptosomes from rat brain; type: biochemical; conditions: test concentration of 10 μM; for inhibition at 10 µM: read-out: 5-HT (inhibition of reuptake of serotonin, % inhibition)
T1 construct: synaptosomes are freshly isolated from areas of the rat brain; from tissue; host or cells: rat brain synaptosomes (P2 fraction)
Summary of the method: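 Freshly isolated rat brain synaptosomes (P2 fraction) used for 5-HT reuptake. Test compound at 10 μM, activity given as % inhibition.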

human μ opiate receptor = molecular target: T2, human μ opiate receptor (Homo sapiens, UniProt P35372); test: Affinity for the human μ opiate receptor ([3H]-naloxone displacement, CHO-K1 receptor membrane preparation, SPA); type: binding; conditions: test concentration of 1 μM; for inhibition at 1 µM: read-out: μ (binding on the μ opioid receptor, % inhibition)
T2 construct: purchased PerkinElmer Life Sciences, Zaventem, Belgium RB-HOM; host or cells: CHO-K1 cells (membrane preparation)
Summary of the method: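 Membranes from CHO-K1 cells expressing the human μ opiate receptor (15-40 μg protein per well) were incubated with test compound, 1 nmol/l [3H]-naloxone and WGA-SPA beads in 50 mmol/l Tris-HCl with 0.06% BSA for 90 minutes at room temperature. Values are % inhibition of specific binding at 1 μmol/l.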

T1 sequence (P31652 whole entry): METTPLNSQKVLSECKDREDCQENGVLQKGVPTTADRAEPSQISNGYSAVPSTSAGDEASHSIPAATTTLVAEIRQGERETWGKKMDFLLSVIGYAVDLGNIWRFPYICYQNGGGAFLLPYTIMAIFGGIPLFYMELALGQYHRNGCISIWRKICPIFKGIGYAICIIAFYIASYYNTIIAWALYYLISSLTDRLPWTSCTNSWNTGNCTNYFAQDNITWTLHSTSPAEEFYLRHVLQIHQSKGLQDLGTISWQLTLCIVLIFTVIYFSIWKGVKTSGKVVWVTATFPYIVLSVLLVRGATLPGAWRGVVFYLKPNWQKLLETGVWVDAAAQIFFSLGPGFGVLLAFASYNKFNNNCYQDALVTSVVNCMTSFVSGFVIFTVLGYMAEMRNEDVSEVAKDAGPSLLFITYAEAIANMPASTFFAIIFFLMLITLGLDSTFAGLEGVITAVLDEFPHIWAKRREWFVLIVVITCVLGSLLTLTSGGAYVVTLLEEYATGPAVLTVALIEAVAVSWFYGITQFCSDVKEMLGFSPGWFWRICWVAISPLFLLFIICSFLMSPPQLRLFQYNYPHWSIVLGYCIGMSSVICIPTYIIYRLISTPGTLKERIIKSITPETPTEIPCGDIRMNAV
T2 sequence (P35372 whole entry): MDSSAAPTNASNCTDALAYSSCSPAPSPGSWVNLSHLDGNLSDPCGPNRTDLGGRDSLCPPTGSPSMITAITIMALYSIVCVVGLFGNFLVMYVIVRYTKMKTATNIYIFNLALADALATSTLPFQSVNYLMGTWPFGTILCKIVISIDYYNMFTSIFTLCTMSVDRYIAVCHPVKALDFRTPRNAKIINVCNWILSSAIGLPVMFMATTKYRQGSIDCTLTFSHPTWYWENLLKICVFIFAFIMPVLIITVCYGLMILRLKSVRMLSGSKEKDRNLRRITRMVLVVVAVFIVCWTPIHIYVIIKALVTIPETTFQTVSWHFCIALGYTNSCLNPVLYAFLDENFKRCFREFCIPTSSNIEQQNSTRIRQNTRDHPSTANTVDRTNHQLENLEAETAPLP

Row | SMILES | inhibition at 10 µM [1] | inhibition at 1 µM (human μ opiate receptor) | 5-HT (inhibition of reuptake of serotonin, % inhibition) [1] | μ (binding on the μ opioid receptor, % inhibition) (human μ opiate receptor) | further results
1 | CN(C)C(c1cccs1)C1CCC(CCNC(=O)COCCN(Cc2ccccc2)S(=O)(=O)c2ccccc2)CC1 (stereo not shown) [Example 116, 2-(2-(N-benzylphenylsulfonamido)ethoxy)-N-(2-(4-((dimethylamino)(thiophen-2-yl)methyl)cyclohexyl)ethyl)acetamide] | 97% | 91% | – | – | –
2 | Cc1ccc(S(=O)(=O)N2CCC(OCC(=O)NCC3CCC(C(c4ccccc4)N(C)C)CC3)C2)cc1 (stereo not shown) [Example 125, N-((4-((dimethylamino)(phenyl)methyl)cyclohexyl)methyl)-2-(1-tosylpyrrolidin-3-yloxy)acetamide] | 91% | 91% | – | – | –
3 | COc1ccc(S(=O)(=O)N(C)CCOCC(=O)NC2CCC(C(c3ccc(F)cc3)N(C)C)CC2)cc1OC (stereo not shown) [Example 548] | – | – | 99% | 26% | –
4 | COc1cc(C)c(S(=O)(=O)N2CCC(OCC(=O)NC3CCC(C(c4cccs4)N(C)C)CC3)C2)c(C)c1 (stereo not shown) [Example 98, N-(4-((dimethylamino)(thiophen-2-yl)methyl)cyclohexyl)-2-(1-(4-methoxy-2,6-dimethylphenylsulfonyl)pyrrolidin-3-yloxy)acetamide] | 92% | 91% | – | – | –
5 | CN(C)C(CCc1ccccc1)C1CCC(CNC(=O)COC2CCN(S(=O)(=O)c3ccccc3)C2)CC1 (stereo not shown) [Example 573] | – | – | 100% | 23% | –
6 | CN(C)C(c1cccs1)C1CCC(CCNC(=O)COCCN2CCN(S(=O)(=O)c3ccccc3)CC2)CC1 (stereo not shown) [Example 99, N-(2-(4-((dimethylamino)(thiophen-2-yl)methyl)cyclohexyl)ethyl)-2-(2-(4-(phenylsulfonyl)piperazin-1-yl)ethoxy)acetamide] | 95% | 92% | – | – | –
7 | CN(C)C(CCc1ccccc1)C1CCC(CNC(=O)COC2CCCN(S(=O)(=O)c3ccccc3)C2)CC1 (stereo not shown) [Example 558] | – | – | 92% | 29% | –
8 | COc1ccc(S(=O)(=O)N2CCCCC2COCC(=O)NCC2CCC(C(CCc3ccccc3)N(C)C)CC2)c(OC)c1 (stereo not shown) [Example 420] | – | – | – | – | 5-HT (inhibition of reuptake of serotonin, % inhibition) ([1]; 10 µM): 74%; μ (binding on the μ opioid receptor, % inhibition) (human μ opiate receptor; 1 µM): 53%
9 | COc1cc(C)c(S(=O)(=O)N2CCC(OCC(=O)NCC3CCC(C(CCc4ccccc4)N(C)C)CC3)CC2)c(C)c1C (stereo not shown) [Example 546] | – | – | 91% | 33% | –
10 | CN(C)C(c1ccccc1)C1CCC(NC(=O)COCCN(C)S(=O)(=O)c2c(Cl)cccc2Cl)CC1 (stereo not shown) [Example 135, 2-(2-(2,6-dichloro-N-methylphenylsulfonamido)ethoxy)-N-(4-((dimethylamino)(phenyl)methyl)cyclohexyl)acetamide] | 83% | 89% | – | – | –
11 | CN(C)C(c1ccccc1)C1CCC(CNC(=O)COCCN(C)S(=O)(=O)c2ccc(Cl)cc2)CC1 (stereo not shown) [Example 110, 2-(2-(4-chloro-N-methylphenylsulfonamido)ethoxy)-N-((4-((dimethylamino) (phenyl)methyl)cyclohexyl)methyl)acetamide] | 94% | 87% | – | – | –
12 | COc1ccc(S(=O)(=O)N2CCCCC2COCC(=O)NCC2CCC(C(CCc3ccccc3)N(C)C)CC2)cc1OC (stereo not shown) [Example 559] | – | – | – | – | 5-HT (inhibition of reuptake of serotonin, % inhibition) ([1]; 10 µM): 84%; μ (binding on the μ opioid receptor, % inhibition) (human μ opiate receptor; 1 µM): 14%
13 | CN(C)C(c1ccc(F)cc1)C1CCC(CNC(=O)COCCC2CCN(S(=O)(=O)c3ccccc3)CC2)CC1 (stereo not shown) [Example 583] | – | – | 77% | 7% | –
14 | COc1cc(C)c(S(=O)(=O)N(CCOCC(=O)NCCC2CCC(C(c3ccc(F)cc3)N(C)C)CC2)Cc2ccccc2)c(C)c1 (stereo not shown) [Example 547] | – | – | 90% | 30% | –
15 | CN(C)C(c1cccs1)C1CCC(CNC(=O)COCC2CCCN(S(=O)(=O)c3ccccc3)C2)CC1 (stereo not shown) [Example 101, N-((4-((dimethylamino)(thiophen-2-yl)methyl)cyclohexyl)methyl)-2-((1-(phenylsulfonyl)piperidin-3-yl)methoxy)acetamide] | 94% | 92% | – | – | –
16 | COc1ccc(S(=O)(=O)N2CCCCC2COCC(=O)NCCC2CCC(C(c3cccs3)N(C)C)CC2)cc1OC (stereo not shown) [Example 120, 2-((1-(3,4-dimethoxyphenylsulfonyl)piperidin-2-yl)methoxy)-N-(2-(4-((dimethylamino)(thiophen-2-yl)methyl)cyclohexyl)ethyl)acetamide] | 91% | 92% | – | – | –
17 | CN(C)C(CCc1ccccc1)C1CCC(CNC(=O)COC2CCN(S(=O)(=O)c3ccccc3)CC2)CC1 (stereo not shown) [Example 578] | – | – | 94% | 12% | –
18 | CN(C)C(CCc1ccccc1)C1CCC(CNC(=O)COC2CCN(S(=O)(=O)c3ccc(F)cc3)C2)CC1 (stereo not shown) [Example 574] | – | – | 94% | 18% | –
19 | CN(C)C(c1ccc(F)cc1)C1CCC(CCNC(=O)COC2CCN(S(=O)(=O)c3ccccc3)CC2)CC1 (stereo not shown) [Example 553] | – | – | 94% | 26% | –
20 | CN(C)C(c1cccc(F)c1)C1CCC(CNC(=O)COCC2CCCN2S(=O)(=O)c2ccc(Cl)c(Cl)c2)CC1 (stereo not shown) [Example 119, 2-((1-(3,4-dichlorophenylsulfonyl)pyrrolidin-2-yl)methoxy)-N-((4-((dimethylamino)(3-fluorophenyl)methyl)cyclohexyl)methyl)acetamide] | 96% | 90% | – | – | –
21 | CN(C)C(c1cccs1)C1CCC(CNC(=O)COC2CCN(S(=O)(=O)c3ccc(F)cc3)C2)CC1 (stereo not shown) [Example 97, N-((4-((dimethylamino)(thiophen-2-yl)methyl)cyclohexyl)methyl)-2-(1-(4-fluorophenylsulfonyl)pyrrolidin-3-yloxy)acetamide] | 91% | 92% | – | – | –
22 | COc1cc(C)c(S(=O)(=O)N2CCC(CCOCC(=O)NCC3CCC(C(c4cccs4)N(C)C)CC3)CC2)c(C)c1C (stereo not shown) [Example 131, N-((4-((dimethylamino)(thiophen-2-yl)methyl)cyclohexyl)methyl)-2-(2-(1-(4-methoxy-2,3,6-trimethylphenylsulfonyl)piperidin-4-yl)ethoxy)acetamide] | 91% | 86% | – | – | –
23 | CCN(CCOCC(=O)NCC1CCC(C(c2cccc(F)c2)N(C)C)CC1)S(=O)(=O)c1c(C)cc(OC)c(C)c1C (stereo not shown) [Example 117, N-((4-((dimethylamino)(3-fluorophenyl)methyl)cyclohexyl)methyl)-2-(2-(N-ethyl-4-methoxy-2,3,6-trimethylphenylsulfonamido)ethoxy)acetamide] | 94% | 92% | – | – | –
24 | COc1ccc(S(=O)(=O)N2CCCCC2COCC(=O)NCCC2CCC(C(c3cccc(F)c3)N(C)C)CC2)cc1OC (stereo not shown) [Example 581] | – | – | – | – | 5-HT (inhibition of reuptake of serotonin, % inhibition) ([1]; 10 µM): 70%; μ (binding on the μ opioid receptor, % inhibition) (human μ opiate receptor; 1 µM): 9%
25 | COc1ccc(S(=O)(=O)N(C)CCOCC(=O)NCC2CCC(C(CCc3ccccc3)N(C)C)CC2)cc1OC (stereo not shown) [Example 571] | – | – | 88% | 14% | –
26 | CN(C)C(c1ccc(F)cc1)C1CCC(CNC(=O)COC2CCN(S(=O)(=O)c3ccccc3)CC2)CC1 (stereo not shown) [Example 568] | – | – | 97% | 11% | –
27 | COc1ccc(S(=O)(=O)N2CCCCC2COCC(=O)NCC2CCC(C(c3ccccc3)N(C)C)CC2)c(OC)c1 (stereo not shown) [Example 106, 2-((1-(2,4-dimethoxyphenylsulfonyl)piperidin-2-yl)methoxy)-N-((4-((dimethylamino)(phenyl)methyl)cyclohexyl)methyl)acetamide] | 85% | 92% | – | – | –
28 | Cc1cc(C)c(S(=O)(=O)N(C)CCOCC(=O)NC2CCC(C(c3ccccc3)N(C)C)CC2)c(C)c1 (stereo not shown) [Example 63, N-(4-((dimethylamino)(phenyl)methyl)cyclohexyl)-2-(2-(N,2,4,6-tetramethylphenylsulfamido)ethoxy)acetamide] | – | – | 79% | 94% | –
29 | COc1cc(C)c(S(=O)(=O)N2CCC(CCOCC(=O)NC3CCC(C(c4cccc(F)c4)N(C)C)CC3)CC2)c(C)c1C (stereo not shown) [Example 118, N-(4-((dimethylamino)(3-fluorophenyl)methyl)cyclohexyl)-2-(2-(1-(4-methoxy-2,3,6-trimethylphenylsulfonyl)piperidin-4-yl)ethoxy)acetamide] | 92% | 90% | – | – | –

Reference: patent publication US8106055B2, “Substituted amide compounds” (Gruenenthal GmbH, priority 2007, dated 2012)
